From ChEMBL document CHEMBL3507680, “University of Dundee, Gates Library screen for HepG2 cell viability” come the findings set out here.

The data set can be described thus: Human HepG2 cell viability assay in 384 well format. The format is toxicity, cell-based. Also noted: dose 125 nL, time 70.5 hour; cytotoxicity at 70.5 h: concentration not given beside the values. The conditions noted are these: HepG2 cells, read-out: Inhibition.

In the case of `CN(C)C[C@@H]1CN(C2CCN(c3ccc(Cl)cc3)CC2)C[C@@H]1CO`, the cytotoxicity at 70.5 h is -10.6%.

Turning to `COc1nc2c(cc1C(=O)N1C[C@@H](N)C[C@H]1C(=O)NC(C)C)CCC2`, the cytotoxicity at 70.5 h was -2.39%.

As for `CN1CCCC2(CCN(C(=O)Cc3cc4c(cc3Cl)OCCO4)C2)C1=O` (configuration not stated), the cytotoxicity at 70.5 h is -2.31%.

Take `O=C(Cc1cnccn1)N1CCC(c2nccn2CC2CC2)CC1`: the cytotoxicity at 70.5 h is 31.6%.

For `CC(c1ccco1)N(C)Cc1cc2cc3c(cc2[nH]c1=O)OCO3` (configuration not stated), the cytotoxicity at 70.5 h is -8.06%.

Take `O=C(Cc1cccc(O)c1)N1CCC2(CC1)c1ccccc1CC2O` (configuration not stated): the cytotoxicity at 70.5 h was -11.7%.

For `CC(O)CN1CCc2onc(C(c3ccccc3)c3ccccc3)c2C1` (configuration not stated), the cytotoxicity at 70.5 h was -10%.

In the case of `COCCS(=O)(=O)c1ncc(CN(C)CC(C)C)n1Cc1ccccc1`, the cytotoxicity at 70.5 h is -1.85%.

With `O=C(Cn1c(=O)oc2ccccc21)N1Cc2cnn(CCO)c2C1`, the cytotoxicity at 70.5 h is -2.5%.

Take `Cc1oc(-c2cccc(F)c2)nc1CN1CCOCS1(=O)=O`: the cytotoxicity at 70.5 h was -11.9%.

Regarding `Cc1cc(C)c2nc(CN3CCC(CN)C3)cc(O)c2c1` (configuration not stated), the cytotoxicity at 70.5 h came out at 6.13%.

In the case of `COCCCC1CCCCN1Cc1cn2cc(C)ccc2n1` (configuration not stated), the cytotoxicity at 70.5 h is -25.8%.

In the case of `Cc1ccccc1-n1cc(-c2ccnc(NC(CO)C(C)C)n2)cn1` (configuration not stated), the cytotoxicity at 70.5 h was -7.36%.

Regarding `CN1CCCN(c2nccc(-c3cc(C(=O)O)ccn3)n2)CC1`, the cytotoxicity at 70.5 h is 24.6%.

`Cc1cc(C)n(NC(=O)c2cccc3c2OCC3)c(=O)c1`: the cytotoxicity at 70.5 h was -6.18%.

For `O=C(Nc1ccc(F)cc1)C1CNCCN1C(=O)CCO` (configuration not stated), the cytotoxicity at 70.5 h was determined as 8.54%.

Take `C=C1C(C)(C)[C@H]2CC[C@]1(C(=O)N1CCC(n3cc(CO)nn3)CC1)C2`: the cytotoxicity at 70.5 h was -7.81%.

For the compound `CCN(Cc1cccc(C(=O)Nc2cn(C)nn2)c1)[C@H]1COC[C@@H]1O`, the cytotoxicity at 70.5 h was -5.22%.

On to `Cc1cc(C(F)(F)F)nc(CNC(=O)CCC2CCCCN2C)n1` (configuration not stated), for which the cytotoxicity at 70.5 h is 0.421%.

In the case of `CCCN(CC)c1cc(C2CCNCC2)nc(C)n1`, the cytotoxicity at 70.5 h came to 26.5%.

For the compound `COc1ccc(-c2nccn2CC(O)CN2CCCC2)c(F)c1` (configuration not stated), the cytotoxicity at 70.5 h was 28.4%.

For the compound `Cn1ccnc1C1c2nc[nH]c2CCN1Cc1cccnc1` (configuration not stated), the cytotoxicity at 70.5 h was -5.94%.

As to `CCn1ccnc1CN(C)C(=O)Cn1ccc2ccccc2c1=O`, the cytotoxicity at 70.5 h is -10.4%.

`CN(Cc1n[nH]c2c1CCC2)C(=O)CCc1cc2n(n1)CCCNC2`: the cytotoxicity at 70.5 h was -12.8%.

In the case of `COc1ccc(C(O)CNC(=O)NCCc2csc(C)n2)cc1` (configuration not stated), the cytotoxicity at 70.5 h was -4.45%.

As to `Cc1ccc(-c2cc(CNC(=O)N3CCSCC3)on2)cc1`, the cytotoxicity at 70.5 h was -1.58%.

`Cc1nc(CNC(=O)NCC(O)c2ccc(F)cc2)cs1` (configuration not stated): the cytotoxicity at 70.5 h is -3.15%.

In the case of `Cc1csc(N2CCCN(C(=O)Cn3cncn3)CC2)n1`, the cytotoxicity at 70.5 h is -2.46%.

Regarding `Cc1csc(N2CCCN(C(=O)C(C)n3cncn3)CC2)n1` (configuration not stated), the cytotoxicity at 70.5 h is 1.24%.

For the compound `CCc1nc(C2CCCN(C(=O)c3ccccc3F)C2)no1` (configuration not stated), the cytotoxicity at 70.5 h was -2.67%.

In the case of `COCCN1CCN(CCCS(=O)(=O)N(C)C)CC1C` (configuration not stated), the cytotoxicity at 70.5 h was -2.19%.

On to `CCS(=O)(=O)c1ccccc1N1CCC(N)CC1`, for which the cytotoxicity at 70.5 h was -3.9%.

On to `CC(=O)N1CCCN(C(=O)c2ccc(=O)n(C)c2)c2ccccc21`, for which the cytotoxicity at 70.5 h was -2.79%.

`O=C(c1nn(-c2ccccc2F)cc1O)N1CCCSCC1`: the cytotoxicity at 70.5 h came to 2.69%.

Regarding `Cn1cc(C(=O)N2CCSc3ccccc32)ccc1=O`, the cytotoxicity at 70.5 h came to 3.72%.

With `O=C(c1nn(-c2ccccc2F)cc1O)N1CCC2(CC1)OCCO2`, the cytotoxicity at 70.5 h was 13.2%.

On to `CCc1nc(CN(C)C2CCN(CC(=O)N3CCOCC3)C2)no1` (configuration not stated), for which the cytotoxicity at 70.5 h is -1.36%.

Take `CC(=O)N(Cc1noc(C2CC2)n1)C1CCN(CC2CCOCC2)C1` (configuration not stated): the cytotoxicity at 70.5 h was found to be 22.1%.

As to `CN(Cc1noc(C2CC2)n1)C1CCN(CC(=O)N2CCOCC2)C1` (configuration not stated), the cytotoxicity at 70.5 h was -3.02%.

As to `CCc1nc(C2CCCN2C(=O)CCc2c(C)noc2Cl)no1` (configuration not stated), the cytotoxicity at 70.5 h was -3.77%.

In the case of `COc1ccc(NC(=O)CCn2nc(-c3cccs3)oc2=O)cc1OC`, the cytotoxicity at 70.5 h was -5.48%.

Turning to `COc1cc(NC(=O)CCn2nc(-c3cccs3)oc2=O)cc(OC)c1`, the cytotoxicity at 70.5 h is -7.55%.

For `N#Cc1cccc(NC(=O)CCn2nc(-c3cccs3)oc2=O)c1`, the cytotoxicity at 70.5 h was -11%.

With `O=C(C1CCCN1Cc1nc(-c2ccco2)no1)N1CCSCC1` (configuration not stated), the cytotoxicity at 70.5 h was -5.08%.

As for `COc1cc(C(=O)NS(=O)(=O)c2cccc(C#N)c2)cc(OC)c1Br`, the cytotoxicity at 70.5 h is -6.73%.

For the compound `CC(C)c1ncncc1C(=O)N1CCN(Cc2ccccn2)CC1`, the cytotoxicity at 70.5 h was -7.1%.

On to `CC(C)c1ncncc1C(=O)N1CCN(Cc2ccsc2)CC1`, for which the cytotoxicity at 70.5 h is -10.1%.

With `O=C1NCCN1C1CCN(Cc2coc(-c3ccc(F)cc3)n2)CC1`, the cytotoxicity at 70.5 h was -2.32%.

As for `CCc1nnc2n1CCN(Cc1csc(NC(C)=O)n1)C2`, the cytotoxicity at 70.5 h was -3.38%.

Turning to `COc1ncccc1CNC(=O)NC1CCCOc2ccccc21` (configuration not stated), the cytotoxicity at 70.5 h is -4.36%.

Consider `CC(=O)Nc1nc(CN2CCn3c(C)nnc3C2)cs1`, for which the cytotoxicity at 70.5 h is -2.82%.

Consider `CS(=O)(=O)NC(=O)c1nnn(-c2ccccc2)c1C1CC1`, for which the cytotoxicity at 70.5 h was -5.6%.

On to `O=C(N1CCCC(n2cncn2)C1)C1(c2ccc(Cl)cc2)CCC1` (configuration not stated), for which the cytotoxicity at 70.5 h is -7.28%.

As to `O=C(N1CCCC(n2cncn2)C1)C1(c2cccc(F)c2)CC1` (configuration not stated), the cytotoxicity at 70.5 h is -7.31%.

As for `O=C(N1CCCC(n2cncn2)C1)C1(c2ccccc2F)CCCC1` (configuration not stated), the cytotoxicity at 70.5 h was -5.6%.

Turning to `Cc1nc(CN(C)C2CCN(CCC(=O)N3CCOCC3)C2)no1` (configuration not stated), the cytotoxicity at 70.5 h was found to be 15.9%.

In the case of `Cc1ccc(-c2nc(CN3CCC(N4CCNC4=O)CC3)co2)cc1`, the cytotoxicity at 70.5 h was -0.587%.

Regarding `O=C1NCCN1C1CCN(Cc2coc(-c3ccccc3)n2)CC1`, the cytotoxicity at 70.5 h turned out to be 20.6%.

With `O=C(c1ccc2c(c1)CCCC2)N1CCCC(n2cncn2)C1` (configuration not stated), the cytotoxicity at 70.5 h is -4.56%.

Turning to `O=C(CCc1cccs1)N1CCCC1c1noc(C2CC2)n1` (configuration not stated), the cytotoxicity at 70.5 h was -6.44%.

In the case of `COc1cc(C(=O)N2CCCC(n3cncn3)C2)ccc1C` (configuration not stated), the cytotoxicity at 70.5 h was -8.45%.

In the case of `CCc1nc(C2CCCN2C(=O)CCc2cscn2)no1` (configuration not stated), the cytotoxicity at 70.5 h is -4.03%.

`CCc1nc(C2CCCN2C(=O)Cc2cccs2)no1` (configuration not stated): the cytotoxicity at 70.5 h was -8.42%.

With `c1ccc2oc(CCCN3CCCC(Cn4cncn4)C3)nc2c1` (configuration not stated), the cytotoxicity at 70.5 h came to 19.8%.

For `CCc1noc(CN2CCN(C(=O)c3ccccc3F)CC2)n1`, the cytotoxicity at 70.5 h was 29.8%.

With `CC(C)Cc1noc(CN2CCN(C(=O)c3ccccc3F)CC2)n1`, the cytotoxicity at 70.5 h turned out to be 13.7%.

With `CC(C)c1noc(CN2CCN(C(=O)c3ccc(F)cc3)CC2)n1`, the cytotoxicity at 70.5 h is -3.61%.

Regarding `CC(NC(=O)Cc1cccs1)c1nnc2n1CCC2` (configuration not stated), the cytotoxicity at 70.5 h is -7.18%.

Regarding `CC(NC(=O)CCC(=O)c1cccs1)c1nnc2n1CCC2` (configuration not stated), the cytotoxicity at 70.5 h was -3.09%.

In the case of `Cc1cccc(CN2CCN(C(=O)c3cc(C4CC4)[nH]n3)CC2)c1`, the cytotoxicity at 70.5 h is -4.75%.

For the compound `O=C(c1cc(C2CC2)[nH]n1)N1CCN(Cc2ccncc2)CC1`, the cytotoxicity at 70.5 h was -11.9%.

Turning to `O=C(NCCNc1ncccn1)C1CCN(C(=O)NC2CC2)CC1`, the cytotoxicity at 70.5 h is -4.22%.
